Where two headings read alike, the source gives them in different places.
Assays:
[1] = test system: DRG neuron spike discharge triggered by activation of TRPV1 channels by capsaicin; assay: Capsaicin-evoked DRG neuron spike discharge; format: cell-based
Procedure: (§1) For current-clamp recordings in DRG neurons, the patch pipettes were filled with (in mM): 135 KCl, 1 K2ATP, 1 MgATP, 2 EGTA, 1.1 CaCl2, 5 glucose (free [Ca^2+]i=87 nM), 10 HEPES, adjusted with KOH at pH 7.4 (315 mOsm). The external solution contained (in mM): 150 NaCl, 2.5 KCl, 2 CaCl2, 2 MgCl2, 15 glucose, 10 HEPES, adjusted with NaOH at pH 7.4 (325 mOsm). Drug exposure was evoked by rapid application using a fast perfusion system (AutoMate Scientific).
The dual targeting and the synergistic effect of NH91 is further illustrated in FIGS. 17A-B and 18A-B, by its effect on the DRG neuron spike discharge triggered by the activation of TRPV1 channels by 1 μM capsaicin.

[2] = molecular target: T1, recombinant Kv7.2/3 channels (Homo sapiens, UniProt O43525+O43526); assay: Whole-cell patch clamp of recombinant Kv7.2/3 currents in transfected CHO cells; format: cell-based; conditions: for V50 (parameter of potency for Kv7.2/3 At 5 μM): compound at 5 μM, N = 5-12; for EC50: N = 5-10; for increase of the amplitude of recombinant Kv7.2/3 currents: 5 μM compound, at −40 mV, CHO cells
T1 construct: expressed in transfected cells; host or cells: CHO cells
Procedure: Chinese hamster ovary CHO cells were grown in Dulbecco's modified Eagle's medium supplemented with 2 mM glutamine, 10% fetal calf serum, and antibiotics. In brief, 40,000 cells seeded on poly-D-lysine-coated glass coverslips (13 mm in diameter) in a 24-multiwell plate were transfected with pIRES-CD8 (0.3 μg) as a marker for transfection with 0.5 μg Kv7.2 and 0.5 μg Kv7.3. Transfection was performed using 3.6 μl of X-tremeGENE 9 (Roche) according to the manufacturer's protocol. For electrophysiology, transfected cells were visualized approximately 40 h after transfection, using the anti-CD8 antibody coated beads method.
(§2) For Kv7.2 potassium current recordings, the patch pipettes were pulled from borosilicate glass (Warner Instrument Corp) with a resistance of 3-7 MΩ, and were filled with (in mM): 130 KCl, 5 Mg ATP, 5 EGTA, 10 HEPES, pH 7.3 (adjusted with KOH), and sucrose was added to adjust osmolarity to 290 mOsmol. The external solution contained (in mM): 140 NaCl, 4 KCl, 1.2 MgCl2, 1.8 CaCl2, 11 glucose, 5.5 HEPES, pH 7.3 (adjusted with NaOH), and sucrose was added to adjust osmolarity to 310 mOsmol. […] For TRPV1 current recordings, the solutions were the same as those used for Kv7.2, except that the extracellular solution contained no CaCl2 to limit desensitization and included 1 mM EGTA and 1 mM MgCl2.
Chinese hamster ovary CHO cells were grown in Dulbecco's modified Eagle's medium supplemented with 2 mM glutamine, 10% fetal calf serum, and antibiotics. In brief, 40,000 cells seeded on poly-D-lysine-coated glass coverslips (13 mm in diameter) in a 24-multiwell plate were transfected with pIRES-CD8 (0.3 μg) as a marker for transfection with 0.5 μg of Kv7.2 and Kv7.3 cDNA plasmids. Transfection was performed using 3.6 μl of X-tremeGENE 9 (Roche) according to the manufacturer's protocol. For electrophysiology, transfected cells were visualized approximately 40 h after transfection, using the anti-CD8 antibody coated beads method. Recordings were performed using the whole cell configuration of the patch clamp technique. Signals were amplified using an Axopatch 200B patch-clamp amplifier (Axon Instruments), sampled at 5 kHz and filtered at 2.4 kHz via a four pole Bessel low pass filter. Data were acquired using pClamp 10.5 software in conjunction with a DigiData 1440A interface. The patch pipettes were pulled from borosilicate glass (Harvard Apparatus) with a resistance of 3-7 megaohms. The intracellular pipette solution contained 130 mM KCl, 5 mM K2-ATP, 5 mM EGTA (or 5 mM BAPTA when indicated), 10 mM HEPES, pH 7.3 (adjusted with KOH), CaCl2 (as needed for different values of free Ca2+ concentration according to MAXCHELATOR software, with sucrose added to adjust osmolarity to 290 mosmol. The external solution contained 140 mM NaCl, 4 mM KCl, 1.8 mM CaCl2, 1.2 mM MgCl2, 11 mM glucose, 5.5 mM HEPES, adjusted with NaOH to pH 7.3 (310 mOsM). Series resistances were compensated (75-90%) and periodically monitored. Data analysis was performed using the Clampfit program (pClamp 10.5; Axon Instruments), Microsoft Excel (Microsoft, Redmond, Wash.), and Prism 5.0 (GraphPad Software, Inc., San Diego, Calif.). Leak subtraction was performed off-line, using the Clampfit program of the pClamp 10.5 software.
The normalized conductance was plotted as a function of the test voltages, for cells in the absence and presence of the drug. Chord conductance (G) was calculated by using the following equation: G=I/(V−Vrev), where I corresponds to the current amplitude measured at the end of the pulse, and Vrev is the calculated reversal potential assumed to be −90 mV in CHO cells. G was estimated at various test voltages (V) and then normalized to a maximal conductance value, Gmax. Activation curves were fitted by one Boltzmann distribution: G/Gmax=1/{1+exp[(V50−V)/s]}, where V50 is the voltage at which the current is half-activated and s is the slope factor.

cardiac Herg channel = cardiac Herg channel (Homo sapiens, UniProt Q12809); assay: Cardiac channel Herg current recordings
Procedure: Cardiac channel Herg current recordings were performed as follows:
Cells were held at −90 mV and stepped for 1.5 s from −70 mV to +30 mV in 10 mV increments and repolarized at −60 mV.

[3] = test system: nociceptive dorsal root (DRG) sensory neurons; assay: Current-clamp recording of evoked spike discharge in DRG neurons; format: cell-based, rat
Procedure: Inhibition of the evoked spike discharge of nociceptive dorsal root (DRG) sensory neurons was tested as follows:
as §1

[4] = molecular target: T2, recombinant TRPV1 channel (Homo sapiens, UniProt Q8NER1); assay: Whole-cell recording of capsaicin-activated recombinant TRPV1 currents in transfected CHO cells; format: cell-based
T2 construct: expressed in transfected cells; host or cells: CHO cells
Procedure: as §2
Inhibition of recombinant TRPV1 channel was tested as described in Example 2 hereinabove.
TRPV1 whole-cell currents were activated by exposing transfected CHO cells to 0.5 μM capsaicin at a holding potential of −60 mV.
FIG. 9 presents the effect of 5 μM NH66 on recombinant TRPV1 currents activated by 0.1 μM capsaicin (CAP). In FIG. 9 are shown the TRPV1 currents evoked by application of 0.1 μM capsaicin to transfected CHO cells. In the upper panel are shown the currents only evoked by application of 0.1 μM capsaicin; in the middle panel, are shown the currents first evoked by application of 0.1 μM capsaicin+5 μM NH66, then by 0.1 μM capsaicin only.

[5] = test system: inward voltage-dependent Ca2+ and Na+ current in DRG neurons; assay: Inward voltage-dependent Ca2+ and Na+ current in DRG neurons; format: cell-based; conditions: 5 μM
[6] = N = 5-10, Retigabine: No effect at 30, read-out: IC50 on TRPV1
[7] = Rattus norvegicus, Neuron, N = 5-10, read-out: IC50 on inhibition of evoked spike discharge in DRG sensory neurons
[8] = DRG neuron, rat DRG neurons, read-out: IC50 of inhibition of evoked spike discharge of nociceptive DRG sensory neurons

cardiac Herg channel, sequence (Q12809 whole entry): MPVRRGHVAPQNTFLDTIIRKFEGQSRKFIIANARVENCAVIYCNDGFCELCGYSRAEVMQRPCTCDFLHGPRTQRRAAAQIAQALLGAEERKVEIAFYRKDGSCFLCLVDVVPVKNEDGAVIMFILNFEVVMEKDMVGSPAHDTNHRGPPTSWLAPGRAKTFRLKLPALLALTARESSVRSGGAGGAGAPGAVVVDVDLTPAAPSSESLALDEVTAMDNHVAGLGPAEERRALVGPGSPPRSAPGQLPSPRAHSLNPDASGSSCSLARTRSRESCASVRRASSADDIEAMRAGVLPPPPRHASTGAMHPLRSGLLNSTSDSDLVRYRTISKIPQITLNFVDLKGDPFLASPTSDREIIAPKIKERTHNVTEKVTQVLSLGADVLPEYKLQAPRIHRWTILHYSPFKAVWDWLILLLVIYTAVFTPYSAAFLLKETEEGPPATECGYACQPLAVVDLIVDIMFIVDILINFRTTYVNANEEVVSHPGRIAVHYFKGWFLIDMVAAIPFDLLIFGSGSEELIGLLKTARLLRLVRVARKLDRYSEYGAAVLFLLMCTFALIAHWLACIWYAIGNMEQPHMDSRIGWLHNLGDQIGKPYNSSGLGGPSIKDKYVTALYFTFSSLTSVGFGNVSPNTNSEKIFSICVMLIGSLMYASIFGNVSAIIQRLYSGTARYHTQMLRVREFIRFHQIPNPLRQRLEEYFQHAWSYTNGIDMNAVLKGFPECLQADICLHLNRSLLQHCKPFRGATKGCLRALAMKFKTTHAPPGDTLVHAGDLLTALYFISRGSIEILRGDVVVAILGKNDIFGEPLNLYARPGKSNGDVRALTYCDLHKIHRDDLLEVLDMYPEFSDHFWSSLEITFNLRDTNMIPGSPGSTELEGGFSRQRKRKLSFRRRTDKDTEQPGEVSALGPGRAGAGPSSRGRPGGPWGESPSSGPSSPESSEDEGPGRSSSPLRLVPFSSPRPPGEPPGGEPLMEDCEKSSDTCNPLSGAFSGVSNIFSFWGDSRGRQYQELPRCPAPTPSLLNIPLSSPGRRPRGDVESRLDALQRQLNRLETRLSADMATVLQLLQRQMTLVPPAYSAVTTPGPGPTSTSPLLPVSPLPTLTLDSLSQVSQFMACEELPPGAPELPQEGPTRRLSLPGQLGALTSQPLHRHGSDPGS
T2 sequence (Q8NER1 whole entry): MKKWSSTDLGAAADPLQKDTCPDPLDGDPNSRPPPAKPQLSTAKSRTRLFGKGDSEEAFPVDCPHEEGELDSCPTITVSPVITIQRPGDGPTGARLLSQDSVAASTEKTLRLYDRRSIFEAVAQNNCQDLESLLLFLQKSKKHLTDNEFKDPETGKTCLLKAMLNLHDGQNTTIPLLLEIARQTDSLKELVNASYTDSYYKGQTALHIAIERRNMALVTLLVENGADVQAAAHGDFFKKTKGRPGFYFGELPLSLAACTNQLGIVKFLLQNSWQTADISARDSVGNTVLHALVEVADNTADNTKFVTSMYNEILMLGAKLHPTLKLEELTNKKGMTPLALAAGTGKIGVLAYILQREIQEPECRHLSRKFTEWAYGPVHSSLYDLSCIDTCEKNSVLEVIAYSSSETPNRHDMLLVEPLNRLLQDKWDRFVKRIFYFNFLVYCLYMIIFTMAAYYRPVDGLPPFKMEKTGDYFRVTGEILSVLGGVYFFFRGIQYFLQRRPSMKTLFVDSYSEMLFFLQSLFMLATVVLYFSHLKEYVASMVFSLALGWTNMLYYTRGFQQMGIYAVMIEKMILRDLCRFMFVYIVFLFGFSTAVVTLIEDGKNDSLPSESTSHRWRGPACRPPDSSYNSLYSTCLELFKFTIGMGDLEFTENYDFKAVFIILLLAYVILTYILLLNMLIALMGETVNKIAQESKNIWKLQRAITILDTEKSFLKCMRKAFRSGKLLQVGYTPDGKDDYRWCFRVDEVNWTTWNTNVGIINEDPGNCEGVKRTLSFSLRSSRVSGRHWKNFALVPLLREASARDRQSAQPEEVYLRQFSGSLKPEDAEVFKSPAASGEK

Row | Structure (SMILES) | inhibition at 0.1 µM ([1]; DRG neuron, read-out: inhibition of capsaicin-evoked DRG spikes) [%] | V50 (parameter of potency for Kv7.2/3 At 5 μM) [2] [mV] | IC50 (cardiac Herg channel) [nM] | IC50 ([3]; Rattus norvegicus, Neuron, read-out: IC50 on inhibition of evoked spike discharge in DRG sensory neurons) [nM] | IC50 [4, 6] [nM] | EC50 [2] [nM] | IC50 [3, 7] [nM] | increase of the amplitude of recombinant Kv7.2/3 currents [2] | IC50 [3, 8] [nM] | IC50 ([4]; currents activated by 0.1 μM capsaicin, read-out: IC50 of inhibition of recombinant TRPV1 currents) [nM] | effect on DRG evoked spike discharge (in words) [3] | effect on amplitude at −40 mV and voltage-dependence of Kv7.2/3 channels (in words) [2] | inhibition of capsaicin-evoked DRG spike discharge in the presence of XE991 ([1]; Kv7.2/3 channel blocker XE991 10 μM present, n=11) [%] | effect on inward voltage-dependent Ca2+ and Na+ current in DRG neurons [5] | IC50 on TRPV1 ([4]; N = 5-10, Retigabine: No effect at 30)
1 | CC(=O)Nc1nc2c(Oc3cc(-c4ccc(C(F)(F)F)cc4)ncn3)cccc2s1 [AMG 517, reference compound] | 42 |  |  |  |  |  |  |  |  |  |  |  |  |  | 
2 | O=C(Cc1cc([N+](=O)[O-])cc([N+](=O)[O-])c1Nc1c(Cl)cc([N+](=O)[O-])cc1Cl)NCCO [NH29, reference compound] |  | −27.4 | 5000 | 18000 | 4200 |  |  |  |  |  |  |  |  |  | 
3 | O=C(Cc1ccc(Nc2c(Cl)cc(C(F)(F)F)cc2Cl)cc1)NCCO [NH34, reference compound] |  | −28.1 | 35000 |  | 55000 | 17500 | 25000 |  |  |  |  |  |  |  | 
4 | O=C(Cc1cc(Nc2c(Cl)cc(Cl)cc2Cl)ccc1F)NCCO [NH43, reference compound] |  | −42.0 | > 60000 |  | 400 | 600 | 300 | about 3.5 fold | 300 |  |  |  |  |  | 
5 | CC(C)(O)CNC(=O)Cc1cc(Nc2c(Cl)cc(Cl)cc2Cl)ccc1F [NH66] |  | −30.3 | > 60000 |  |  | 1000 | 500 | about 3.5 fold | 500 | 300 |  |  |  |  | 
6 | CC(C)(CO)CNC(=O)Cc1cc(Nc2c(Cl)cc(Cl)cc2Cl)ccc1F [NH82] |  | −41.1 | > 100000 |  | 400 | 500 | 500 |  |  |  |  |  |  |  | 
7 | CC(C)(O)CCNC(=O)Cc1cc(Nc2c(Cl)cc(Cl)cc2Cl)ccc1F [NH83] |  | −37.3 |  |  | 800 | 600 | 200 |  |  |  | slightly improved activity |  |  |  | 
8 | CC(C)c1cc(Cl)cc(Cl)c1Nc1ccc(F)c(CC(=O)NCC(C)(C)O)c1 [NH91] |  | −42.4 | > 60000 |  | 100 | 2000 | 1000 |  |  |  | prominently inhibits | potently increase the amplitude left-shift the voltage-dependence of activation | 50 | did not affect | 
9 | CC(C)(O)CCNC(=O)Cc1cc(Nc2c(Cl)cc(Cl)cc2C2CC2)ccc1F [NH101] |  | −67.4 | > 50000 |  | 100 | 200 | 200 |  |  |  |  | potently increase the amplitude left-shift the voltage-dependence of activation |  |  | 
10 | O=C(Cc1cc(Nc2c(Cl)cc(Cl)cc2Cl)ccc1F)NC1CCC(O)C1 (stereo not shown) [NH110] |  | −38.5 |  |  |  | 7300 | 200 |  |  |  | inhibits | potently increase the amplitude left-shift the voltage-dependence of activation |  |  | 
11 | CCOC(=O)Nc1ccc(NCc2ccc(F)cc2)cc1N [Retigabine, N-(2-amino-4-(4-fluorobenzylamino)-phenyl)carbamic acid ethyl ester, reference compound] |  | −30.4 | > 30000 |  |  |  | 5000 |  |  |  |  |  |  |  | No effect

Reference: patent US11427531B2, “Modulators of potassium ion and TRPV1 channels and uses thereof” (Ramot at Tel-Aviv University Ltd., priority 2017, dated 2022)
